What all share (assay): biochemical
What all share (set-up): KINOMEscan active site-directed competition binding assay (DiscoveRx), 456 kinases, per cent of control at 300 nM
Holding throughout (details): read-out: Percent of Control (%)

One test concerns the target EGFR (Homo sapiens, UniProt P00533). The gist of the method:
(§1)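 Kinase panel (456 enzymes) profiled by competitive displacement at the active site; compounds run at 300 nmol/L.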

In a further test the target is DYRK1B (Homo sapiens, UniProt Q9Y463). The gist of the method: as §1
Test [1] concerns the target T1, RPS6KA4(Kin.Dom.2-C-terminal) (Homo sapiens, UniProt O75676).
T1 construct: Kin.Dom.2-C-terminal
The gist of the method:
as §1

The target of another test is T2, MLK3 (Homo sapiens, UniProt Q16584).
T2 construct: gene MAP3K11
The gist of the method: as §1

The next test addresses PIM3 (Homo sapiens, UniProt Q86V86). The gist of the method:
as §1

The target in another test is T3, ABL1-nonphosphorylated (Homo sapiens, UniProt P00519).
T3 construct: nonphosphorylated
Put shortly:
as §1

Another test has as its target DDR2 (Homo sapiens, UniProt Q16832). The gist of the method:
as §1

In another test the target is WEE1 (Homo sapiens, UniProt P30291). The gist of the method: as §1
In the next test the target is STK36 (Homo sapiens, UniProt Q9NRP7). The gist of the method:
as §1

The next test has as its target T4, DLK (Homo sapiens, UniProt Q12852).
T4 construct: gene MAP3K12
The gist of the method:
as §1

In a further test the target is TBK1 (Homo sapiens, UniProt Q9UHD2). Put shortly: as §1
The target in the next test is MUSK (Homo sapiens, UniProt O15146). The gist of the method: as §1
In the next test the target is T5, TAK1 (Homo sapiens, UniProt O43318).
T5 construct: gene MAP3K7
The gist of the method:
as §1

For the next test, the target named is FLT4 (Homo sapiens, UniProt P35916). The gist of the method:
as §1

In a further test the target is PIK3CB (Homo sapiens, UniProt P42338). The gist of the method: as §1
The next test addresses NEK3 (Homo sapiens, UniProt P51956). Put shortly: as §1
In the next test the target is SRMS (Homo sapiens, UniProt Q9H3Y6). The gist of the method:
as §1

The target of test [2] is T6, ABL1(Y253F)-phosphorylated (Homo sapiens, UniProt P00519, Y253F).
T6 construct: phosphorylated
The gist of the method:
as §1

Another test concerns the target CLK2 (Homo sapiens, UniProt P49760). The gist of the method:
as §1

A further test has as its target STK39 (Homo sapiens, UniProt Q9UEW8). The gist of the method: as §1
The target in a further test is T7, YSK1 (Homo sapiens, UniProt O00506).
T7 construct: gene STK25
The gist of the method:
as §1

For a further test, the target named is CSNK2A2 (Homo sapiens, UniProt P19784). Put shortly:
as §1

Read-outs that look alike come from different tables or passages of the source.

DDR2, sequence (Q16832 whole entry): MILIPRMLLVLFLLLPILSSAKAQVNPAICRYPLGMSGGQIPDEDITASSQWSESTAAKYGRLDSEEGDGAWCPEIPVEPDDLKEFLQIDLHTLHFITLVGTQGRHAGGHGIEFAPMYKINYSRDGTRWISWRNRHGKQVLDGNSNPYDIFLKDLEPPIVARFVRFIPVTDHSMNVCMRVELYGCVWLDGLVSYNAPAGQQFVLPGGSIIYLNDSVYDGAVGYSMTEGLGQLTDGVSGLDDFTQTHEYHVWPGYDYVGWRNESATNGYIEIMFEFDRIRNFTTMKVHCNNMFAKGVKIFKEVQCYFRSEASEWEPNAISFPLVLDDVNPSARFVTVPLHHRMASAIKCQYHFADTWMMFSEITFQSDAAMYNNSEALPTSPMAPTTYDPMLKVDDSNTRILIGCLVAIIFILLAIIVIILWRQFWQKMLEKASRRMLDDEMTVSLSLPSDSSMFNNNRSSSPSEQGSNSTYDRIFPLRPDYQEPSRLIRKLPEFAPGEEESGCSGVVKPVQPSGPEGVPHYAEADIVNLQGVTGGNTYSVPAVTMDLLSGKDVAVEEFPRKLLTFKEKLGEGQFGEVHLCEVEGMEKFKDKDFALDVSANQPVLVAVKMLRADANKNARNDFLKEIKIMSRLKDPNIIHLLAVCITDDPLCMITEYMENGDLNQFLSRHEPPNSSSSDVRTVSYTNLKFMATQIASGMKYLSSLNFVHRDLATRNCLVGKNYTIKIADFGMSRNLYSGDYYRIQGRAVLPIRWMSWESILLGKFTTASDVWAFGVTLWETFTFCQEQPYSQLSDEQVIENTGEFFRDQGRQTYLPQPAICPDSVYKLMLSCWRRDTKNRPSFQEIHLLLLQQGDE
T1 sequence (O75676 whole entry): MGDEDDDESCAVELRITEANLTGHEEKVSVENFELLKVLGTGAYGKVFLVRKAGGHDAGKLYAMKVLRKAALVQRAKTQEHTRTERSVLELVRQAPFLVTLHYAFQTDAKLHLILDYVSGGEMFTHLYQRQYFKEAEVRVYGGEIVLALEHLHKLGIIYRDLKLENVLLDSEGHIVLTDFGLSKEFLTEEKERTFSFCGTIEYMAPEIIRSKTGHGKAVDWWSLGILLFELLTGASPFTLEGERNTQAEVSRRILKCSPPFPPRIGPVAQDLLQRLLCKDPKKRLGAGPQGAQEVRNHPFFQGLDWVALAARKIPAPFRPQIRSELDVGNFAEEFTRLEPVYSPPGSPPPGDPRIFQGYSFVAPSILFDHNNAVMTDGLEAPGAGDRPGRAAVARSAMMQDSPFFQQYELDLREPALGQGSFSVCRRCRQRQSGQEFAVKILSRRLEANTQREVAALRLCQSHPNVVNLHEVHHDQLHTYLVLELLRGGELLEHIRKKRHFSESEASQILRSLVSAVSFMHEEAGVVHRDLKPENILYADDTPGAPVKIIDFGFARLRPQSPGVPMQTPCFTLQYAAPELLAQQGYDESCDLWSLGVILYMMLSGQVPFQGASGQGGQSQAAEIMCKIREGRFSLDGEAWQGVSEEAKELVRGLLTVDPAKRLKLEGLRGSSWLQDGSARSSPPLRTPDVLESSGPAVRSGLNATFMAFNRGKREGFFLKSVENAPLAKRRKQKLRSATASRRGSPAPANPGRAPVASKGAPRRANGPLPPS
EGFR, sequence (P00533 whole entry): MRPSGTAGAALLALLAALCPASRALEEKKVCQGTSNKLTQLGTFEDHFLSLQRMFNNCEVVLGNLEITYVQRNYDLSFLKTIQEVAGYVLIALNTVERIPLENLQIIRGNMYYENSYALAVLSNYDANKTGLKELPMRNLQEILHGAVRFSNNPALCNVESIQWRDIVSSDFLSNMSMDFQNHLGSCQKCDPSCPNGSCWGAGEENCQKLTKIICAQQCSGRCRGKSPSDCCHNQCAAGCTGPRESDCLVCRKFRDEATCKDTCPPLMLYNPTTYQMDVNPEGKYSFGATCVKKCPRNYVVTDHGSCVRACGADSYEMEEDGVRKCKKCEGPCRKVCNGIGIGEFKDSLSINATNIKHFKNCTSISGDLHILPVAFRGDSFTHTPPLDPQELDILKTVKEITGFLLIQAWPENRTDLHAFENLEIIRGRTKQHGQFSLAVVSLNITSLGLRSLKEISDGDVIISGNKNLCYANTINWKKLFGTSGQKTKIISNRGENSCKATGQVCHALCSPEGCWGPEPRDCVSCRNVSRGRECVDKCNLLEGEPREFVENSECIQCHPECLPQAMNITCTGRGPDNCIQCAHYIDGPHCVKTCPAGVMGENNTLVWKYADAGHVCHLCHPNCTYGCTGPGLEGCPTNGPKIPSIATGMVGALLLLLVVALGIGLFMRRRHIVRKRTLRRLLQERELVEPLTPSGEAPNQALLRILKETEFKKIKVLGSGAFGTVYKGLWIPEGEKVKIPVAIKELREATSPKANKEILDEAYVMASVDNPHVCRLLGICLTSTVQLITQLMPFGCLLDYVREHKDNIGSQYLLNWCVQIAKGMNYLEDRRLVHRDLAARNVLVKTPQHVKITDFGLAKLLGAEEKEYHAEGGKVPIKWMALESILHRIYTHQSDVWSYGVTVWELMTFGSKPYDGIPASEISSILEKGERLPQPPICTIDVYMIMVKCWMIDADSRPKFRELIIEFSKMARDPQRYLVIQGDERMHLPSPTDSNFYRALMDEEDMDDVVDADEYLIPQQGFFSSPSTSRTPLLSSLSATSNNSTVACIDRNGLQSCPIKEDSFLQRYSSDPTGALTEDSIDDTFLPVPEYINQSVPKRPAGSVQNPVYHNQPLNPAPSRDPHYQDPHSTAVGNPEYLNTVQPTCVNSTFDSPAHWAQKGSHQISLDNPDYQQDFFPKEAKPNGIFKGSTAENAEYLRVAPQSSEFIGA
PIK3CB, sequence (P42338 whole entry): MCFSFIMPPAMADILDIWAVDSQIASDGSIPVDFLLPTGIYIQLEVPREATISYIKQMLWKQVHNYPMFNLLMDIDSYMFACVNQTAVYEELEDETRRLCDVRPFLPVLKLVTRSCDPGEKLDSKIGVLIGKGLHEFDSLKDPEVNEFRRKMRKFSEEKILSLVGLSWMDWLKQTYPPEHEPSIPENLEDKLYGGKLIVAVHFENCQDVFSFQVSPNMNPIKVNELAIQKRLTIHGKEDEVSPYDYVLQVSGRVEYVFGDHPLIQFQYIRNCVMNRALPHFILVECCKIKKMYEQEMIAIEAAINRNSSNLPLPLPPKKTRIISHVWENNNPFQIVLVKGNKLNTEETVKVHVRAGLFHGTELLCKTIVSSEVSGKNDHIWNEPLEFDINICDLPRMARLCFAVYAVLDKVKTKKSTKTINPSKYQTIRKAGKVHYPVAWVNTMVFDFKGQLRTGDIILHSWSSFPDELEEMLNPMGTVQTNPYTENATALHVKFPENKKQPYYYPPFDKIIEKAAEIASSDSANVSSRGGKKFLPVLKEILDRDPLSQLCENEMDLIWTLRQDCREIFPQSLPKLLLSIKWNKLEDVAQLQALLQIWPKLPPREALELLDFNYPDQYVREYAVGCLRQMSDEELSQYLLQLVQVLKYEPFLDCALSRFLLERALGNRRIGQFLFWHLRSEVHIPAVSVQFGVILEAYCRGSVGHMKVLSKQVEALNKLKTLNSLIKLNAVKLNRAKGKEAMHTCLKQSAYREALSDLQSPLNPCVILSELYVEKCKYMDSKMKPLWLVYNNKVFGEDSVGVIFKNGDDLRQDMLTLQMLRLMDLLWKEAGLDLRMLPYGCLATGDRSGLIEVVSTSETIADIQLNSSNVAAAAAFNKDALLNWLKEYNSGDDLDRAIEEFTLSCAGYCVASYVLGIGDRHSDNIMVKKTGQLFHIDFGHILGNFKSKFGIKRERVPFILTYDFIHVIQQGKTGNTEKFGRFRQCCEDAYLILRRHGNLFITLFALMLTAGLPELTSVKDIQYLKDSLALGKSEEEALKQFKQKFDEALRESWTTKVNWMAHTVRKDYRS
TBK1, sequence (Q9UHD2 whole entry): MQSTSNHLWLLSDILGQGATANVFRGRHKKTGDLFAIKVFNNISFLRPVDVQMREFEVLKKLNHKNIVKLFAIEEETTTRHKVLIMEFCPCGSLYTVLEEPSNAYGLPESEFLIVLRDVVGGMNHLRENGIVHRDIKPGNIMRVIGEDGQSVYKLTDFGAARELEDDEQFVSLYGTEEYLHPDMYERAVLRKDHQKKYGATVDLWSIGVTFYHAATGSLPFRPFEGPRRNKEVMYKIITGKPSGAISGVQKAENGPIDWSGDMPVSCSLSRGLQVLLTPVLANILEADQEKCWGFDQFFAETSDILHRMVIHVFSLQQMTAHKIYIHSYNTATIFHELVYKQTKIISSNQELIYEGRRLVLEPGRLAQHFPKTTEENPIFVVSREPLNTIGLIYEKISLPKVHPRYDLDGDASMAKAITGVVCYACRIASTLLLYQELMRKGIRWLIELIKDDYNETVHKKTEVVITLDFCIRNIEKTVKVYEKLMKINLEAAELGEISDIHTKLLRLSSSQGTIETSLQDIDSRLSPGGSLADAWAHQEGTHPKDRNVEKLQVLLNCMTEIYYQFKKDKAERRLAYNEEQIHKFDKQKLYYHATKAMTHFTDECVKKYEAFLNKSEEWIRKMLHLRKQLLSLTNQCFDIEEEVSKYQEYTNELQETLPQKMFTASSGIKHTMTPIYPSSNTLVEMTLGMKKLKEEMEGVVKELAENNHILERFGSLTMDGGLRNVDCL
T7 sequence (O00506 whole entry): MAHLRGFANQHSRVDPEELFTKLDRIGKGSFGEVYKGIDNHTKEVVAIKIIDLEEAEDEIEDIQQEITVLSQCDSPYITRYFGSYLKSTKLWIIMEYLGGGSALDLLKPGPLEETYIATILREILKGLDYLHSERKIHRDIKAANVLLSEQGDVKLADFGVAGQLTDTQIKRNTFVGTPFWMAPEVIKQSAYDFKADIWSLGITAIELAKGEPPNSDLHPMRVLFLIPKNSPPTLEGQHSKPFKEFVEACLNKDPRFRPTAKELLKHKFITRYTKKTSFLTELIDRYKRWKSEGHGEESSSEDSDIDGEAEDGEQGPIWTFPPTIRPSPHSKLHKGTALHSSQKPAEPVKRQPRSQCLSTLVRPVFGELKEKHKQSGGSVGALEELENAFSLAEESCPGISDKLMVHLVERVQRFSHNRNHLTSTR

With `O=C(/C=C/c1cnccc1-c1ccc(F)cc1)Nc1ccc(CCc2nnco2)cc1` [T-418, (2E)-3-(4-(4-fluorophenyl)pyridin-3-yl)-N-(4-(2-(1,3,4-oxadiazol-2-yl)ethyl)phenyl)acrylamide], the remaining binding at 0.3 µM on EGFR (sheet T-418) worked out at 59%; on DYRK1B (sheet T-418) it was 67%; in test [1] (sheet T-418), 86%; on MLK3 (sheet T-418), 94%; on PIM3 (sheet T-418), 76%; at ABL1-nonphosphorylated (sheet T-418), 89%. The remaining binding at 0.3 µM at DDR2 (sheet T-418) amounted to 100%; on WEE1 (sheet T-418), 90%; on STK36 (sheet T-418), 100%; on DLK (sheet T-418), 91%; on TBK1 (sheet T-418), 75%; on MUSK (sheet T-418), 100%. Also, the remaining binding at 0.3 µM turned out to be 100% at TAK1 (sheet T-418); 84% at FLT4 (sheet T-418); 96% at PIK3CB (sheet T-418); 100% at NEK3 (sheet T-418); 100% on SRMS (sheet T-418); 98% in test [2] (sheet T-418). The remaining binding at 0.3 µM was 88% at CLK2 (sheet T-418), 100% on STK39 (sheet T-418), 97% on YSK1 (sheet T-418) and 100% on CSNK2A2 (sheet T-418).
As to `Cc1ncccc1Oc1sc(C(N)=O)c2c1-c1c(cnn1C)CC2` [T-474, 1-methyl-8-((2-methylpyridin-3-yl)oxy)-4,5-dihydro-1H-thieno[3,4-g]indazole-6-carboxamide], the remaining binding at 0.3 µM on EGFR is 61%; at DYRK1B, 24%; in [1], 95%; on MLK3, 97%; on PIM3, 82%; at ABL1-nonphosphorylated it was 87%. The remaining binding at 0.3 µM at DDR2 was 100%; on WEE1, 90%; on STK36, 100%; on DLK it was 94%; at TBK1 it was 67%; on MUSK, 100%. Also, the remaining binding at 0.3 µM at TAK1 is 100%; at FLT4, 83%; on PIK3CB, 100%; on NEK3, 100%; on SRMS, 100%; in [2], 100%. Also, the remaining binding at 0.3 µM turned out to be 46% on CLK2, 100% on STK39, 94% on YSK1 and 100% on CSNK2A2.
